15 compounds from US9944613B2, “Fumagillol spirocyclic compounds and fused bicyclic compounds and methods of making and using same” (Zafgen, Inc., priority 2015, dated 2018) can be followed below.

For experiment [1], the system named is Diet Induced Obese (DIO) C57BL/6 mice. The experiment can be described thus: 10 day DIO mouse model, weight loss vs. vehicle. In kind it is in vivo. The following applies: 240 h, 0.3 mpk sc once a day for 10 days. The source says: The objective of this study design was to investigate the efficacy of disclosed compounds in a 10 day DIO mouse model. Effects on body weight, food intake, hematology and blood chemistry were the primary readouts of this study design. Male, Diet Induced Obese (DIO) C57BL/6 mice, 19-21 weeks of age (13-15 weeks on high fat diet) were ordered from a certified vendor and upon receipt were housed on irradiated corncob bedding in micro-isolator cages on a 12-hour light-dark cycle (0700-1900) at 68-74° F. and 30-70% humidity. Mice were fed Research Diets D12492 (60% Kcal fat, 20% Kcal carbohydrate and 20% protein) and provided water ad libitum. DIO mice were received and housed in the facility for approximately two weeks prior to the start of test article administration. On Day −4 or −3, mice were randomized into study groups based on body weight and body weights were continued to be recorded daily for the duration of the study. Daily food intake was assessed starting on Study Day −2 by weighing of the food with hopper together to avoid loss of food in transfer.
Compounds were formulated into a 100% DMSO stock (at 9 mg/mL) prior to the start, and further diluted into the target working concentration using the vehicle of 10% DMSO in water. Prior to test article administration, starting on Day −3 a dosing acclimation occured with all animals receiving a subcutaneous injection of vehicle (10% DMSO) only for 3 days. Starting on Day 1, test compounds or vehicle were administered based on individual body weight, subcutaneously, once a day for 10 days. All mice were sacrificed on Day 11, 24 hours following the final dosing on Day 10. After sacrifice, whole blood was collected and analyzed for hematology and blood chemistry parameters.
Compounds were tested for weight loss vs. vehicle at 0.3 and 1.0 mpk sc (mg per kg animal weight delivered subcutaneously), and the results are shown in Table 2 below.

In experiment [2] the target is T1, recombinant human MetAP2 (Homo sapiens, UniProt P50579).
T1 construct: Flag; made in house
Nature of the experiment: Inhibition of recombinant human MetAP2 activity (MAS peptide / amino acid oxidase / Amplex assay). In kind it is biochemical. The following applies: Flag tagged human recombinant MetAP2, 25 minutes at 25° C.; read-out: MetAP2 IC50. As for the experimental part: Compounds are tested for their capacity to inhibit recombinant human MetAP2 activity using the following assay.
Flag tagged Human recombinant MetAP2 expressed and isolated for use as the enzyme source. 10 mM stock solutions of compounds were prepared in 100% DMSO and further diluted in 100% DMSO required concentration to 1 mM stocks. The stock compound solutions and DMSO vehicle controls were diluted to target final compound concentrations using assay buffer to a final concentration of 50 mM HEPES containing 100 mM NaCl, pH adjusted to 7.5. The MAS peptide was formulated to a 7.5 mM stock in distilled water and prior to use further diluted 1:4. […] 40 μl of enzyme was mixed with 100 μl of MnCl2 then further diluted in assay buffer to a final concentration of 16 μg/ml. To test for compound effect on MetAP2 enzyme activity, 5 μl of test compound, 10 μl of MAS substrate/amino acid oxidase mixture, 10 μl of MetAP2 was added to test wells in a 384 well black plate with blank wells containing no enzyme, replaced with 10 μl of assay buffer. All compounds were tested in duplicate on two occasions on the same day.
The plate was sealed with a TopSeal A cover and mixed briefly on an orbital mixer at 900 rpm. The plate was incubated for a further 25 minutes at 25° C. A 5× stock of Amplex buffer was prepared (0.25M sodium phosphate, pH 7.4) and stored at 4° C. When preparing for use the stock was diluted with distilled water. […] Horse radish peroxidase was diluted in […] of Amplex buffer, 100 μl of this was combined with 50 μl of Amplex Ultrared in […] of 1× Amplex buffer to generate sufficient detection reagent for a 384 well plate. 25 μl detection reagent was added to each well of the test plate, which was re-sealed and mixed briefly on an orbital shaker. The plate was transferred to an Envision Multi-label reader and RFU measured corresponding to excitation 531 nm and emission 595 nm. At the end of the MetAP2 incubation 25 μl Amplex/HRP mixture per well was added and the plate read plate on a plate reader.

Where a name gives a salt, the structure may show the parent alone. A value given as a limit tells only on which side of the number the result lay.

T1 sequence (P50579 whole entry): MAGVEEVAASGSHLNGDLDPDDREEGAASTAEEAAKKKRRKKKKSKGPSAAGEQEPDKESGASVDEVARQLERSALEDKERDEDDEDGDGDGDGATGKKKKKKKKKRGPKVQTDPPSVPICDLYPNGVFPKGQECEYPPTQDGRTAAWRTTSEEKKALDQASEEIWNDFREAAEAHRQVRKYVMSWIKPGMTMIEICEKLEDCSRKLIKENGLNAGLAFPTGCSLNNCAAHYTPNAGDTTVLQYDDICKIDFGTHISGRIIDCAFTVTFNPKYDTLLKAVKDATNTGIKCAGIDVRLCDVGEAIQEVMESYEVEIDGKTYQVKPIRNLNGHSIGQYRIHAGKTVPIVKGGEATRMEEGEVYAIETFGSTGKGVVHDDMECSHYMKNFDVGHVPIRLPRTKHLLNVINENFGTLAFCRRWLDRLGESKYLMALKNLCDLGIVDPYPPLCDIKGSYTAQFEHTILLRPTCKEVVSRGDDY

Broadly, the inhibition in vivo is the relative decrease from the control value, in per cent. As for `CO[C@@H]1[C@H](OC(=O)N2C[C@@H]3[C@@H](CN4CCOCC4)[C@@H]3C2)CC[C@]2(CO2)[C@H]1[C@@]1(C)O[C@@H]1CC=C(C)C` [Example 40, (1R,5S,6S)-((3R,4S,5S,6R)-5-methoxy-4-((2R,3R)-2-methyl-3-(3-methylbut-2-enyl)oxiran-2-yl)-1-oxaspiro[2.5]octan-6-yl) 6-(morpholinomethyl)-3-azabicyclo[3.1.0]hexane-3-carboxylate], in experiment [1], the inhibition in vivo at 0.3 mg/kg was found to be 11.1%.
As usually defined, the IC50 is the concentration at which inhibition is half-maximal. With `CO[C@@H]1[C@H](OC(=O)N2C[C@@H]3[C@H](C2)[C@H]3C(N)=O)CC[C@]2(CO2)[C@H]1[C@@]1(C)O[C@@H]1CC=C(C)C` [Example 34, (1R,5S,6R)-(3R,4S,5S,6R)-5-methoxy-4-((2R,3R)-2-methyl-3-(3-methylbut-2-en-1-yl)oxiran-2-yl)-1-oxaspiro[2.5]octan-6-yl 6-carbamoyl-3-azabicyclo[3.1.0]hexane-3-carboxylate], the IC50 in experiment [2] was under 50 nM. For the same compound, the inhibition in vivo at 0.3 mg/kg in experiment [1] is 3%.
Take `CO[C@@H]1[C@H](OC(=O)N2C[C@@H]3[C@H](C2)[C@H]3C(=O)NCCN2CCOCC2)CC[C@]2(CO2)[C@H]1[C@@]1(C)O[C@@H]1CC=C(C)C` [Example 37, (1R,5S,6R)-(3R,4S,5S,6R)-5-methoxy-4-((2R,3R)-2-methyl-3-(3-methylbut-2-en-1-yl)oxiran-2-yl)-1-oxaspiro[2.5]octan-6-yl 6-((2-morpholinoethyl)carbamoyl)-3-azabicyclo[3.1.0]hexane-3-carboxylate]: in experiment [1], the inhibition in vivo at 0.3 mg/kg came out at 4.3%.
Still for that read-out and setting: as for `CO[C@@H]1[C@H](OC(=O)N2CCC3(CN(CC(F)F)C3)C2)CC[C@]2(CO2)[C@H]1[C@@]1(C)O[C@@H]1CC=C(C)C` [Example 15, (3R,4S,5S,6R)-5-methoxy-4-((2R,3R)-2-methyl-3-(3-methylbut-2-enyl)oxiran-2-yl)-1-oxaspiro[2.5]octan-6-yl 2-(2,2-difluoroethyl)-2,6-diazaspiro[3.4]octane-6-carboxylate], the figure is 22.5%.
Turning to `CNC(=O)[C@H]1[C@@H]2CN(C(=O)O[C@@H]3CC[C@]4(CO4)[C@@H]([C@@]4(C)O[C@@H]4CC=C(C)C)[C@@H]3OC)C[C@@H]21` [Example 32, (1R,5S,6R)-(3R,4S,5S,6R)-5-methoxy-4-((2R,3R)-2-methyl-3-(3-methylbut-2-en-1-yl)oxiran-2-yl)-1-oxaspiro[2.5]octan-6-yl 6-(methylcarbamoyl)-3-azabicyclo[3.1.0]hexane-3-carboxylate], in experiment [2], the 50% inhibitory concentration (IC50) lay in the range of 50 to 500 nM. Further, in experiment [1], the inhibition in vivo at 0.3 mg/kg was determined as 4%.
In the same order, the values of `CO[C@@H]1[C@H](OC(=O)N2C[C@H]3CN(C)C[C@H]3C2)CC[C@]2(CO2)[C@H]1[C@@]1(C)O[C@@H]1CC=C(C)C` [Example 20, (3aR,6aS)-((3R,4S,5S,6R)-5-methoxy-4-((2R,3R)-2-methyl-3-(3-methylbut-2-enyl)oxiran-2-yl)-1-oxaspiro[2.5]octan-6-yl) 5-methylhexahydropyrrolo[3,4-c]pyrrole-2(1H)-carboxylate formate] are under 50 nM and 1.4%.
For `CO[C@@H]1[C@H](OC(=O)NC2CC3(CCN(C)CC3)C2)CC[C@]2(CO2)[C@H]1[C@@]1(C)O[C@@H]1CC=C(C)C` [Example 7, (3R,4S,5S,6R)-5-methoxy-4-((2R,3R)-2-methyl-3-(3-methylbut-2-enyl)oxiran-2-yl)-1-oxaspiro[2.5]octan-6-yl 7-methyl-7-azaspiro[3.5]nonan-2-ylcarbamate formate], the IC50 in experiment [2] is under 50 nM. The inhibition in vivo at 0.3 mg/kg in experiment [1] is 1.9%.
Consider `CO[C@@H]1[C@H](OC(=O)N2CCC3(CCN(CC(F)F)CC3)C2)CC[C@]2(CO2)[C@H]1[C@@]1(C)O[C@@H]1CC=C(C)C` [Example 16, (3R,4S,5S,6R)-5-methoxy-4-((2R,3R)-2-methyl-3-(3-methylbut-2-enyl)oxiran-2-yl)-1-oxaspiro[2.5]octan-6-yl 8-(2,2-difluoroethyl)-2,8-diazaspiro[4.5]decane-2-carboxylate], for which, in experiment [1], the inhibition in vivo at 0.3 mg/kg worked out at 23.4%.
Regarding `CO[C@@H]1[C@H](OC(=O)N2CC3(CCN(C)CC3)C2)CC[C@]2(CO2)[C@H]1[C@@]1(C)O[C@@H]1CC=C(C)C` [Example 8, (3R,4S,5S,6R)-5-methoxy-4-((2R,3R)-2-methyl-3-(3-methylbut-2-enyl)oxiran-2-yl)-1-oxaspiro[2.5]octan-6-yl 7-methyl-2,7-diazaspiro[3.5]nonane-2-carboxylate formate], in experiment [2], the IC50 was under 50 nM. Besides, in experiment [1], the inhibition in vivo at 0.3 mg/kg worked out at 6.2%.
For `COC(=O)N1C[C@@H]2CN(C(=O)O[C@@H]3CC[C@]4(CO4)[C@@H]([C@@]4(C)O[C@@H]4CC=C(C)C)[C@@H]3OC)C[C@@H]2C1` [Example 42, (3aR,6aS)-2-((3R,4S,5S,6R)-5-methoxy-4-((2R,3R)-2-methyl-3-(3-methylbut-2-enyl)oxiran-2-yl)-1-oxaspiro[2.5]octan-6-yl) 5-methyl tetrahydropyrrolo[3,4-c]pyrrole-2,5(1H,3H)-dicarboxylate], the inhibition in vivo at 0.3 mg/kg in experiment [1] amounted to 12.4%.
Still for that read-out and setting: as for `CO[C@@H]1[C@H](OC(=O)N2CCC3(CC2)CNC(=O)C3)CC[C@]2(CO2)[C@H]1[C@@]1(C)O[C@@H]1CC=C(C)C` [Example 29, (3R,4S,5S,6R)-5-methoxy-4-((2R,3R)-2-methyl-3-(3-methylbut-2-enyl)oxiran-2-yl)-1-oxaspiro[2.5]octan-6-yl 3-oxo-2,8-diazaspiro[4.5]decane-8-carboxylate], the figure is -0.5%; as for `CO[C@@H]1[C@H](OC(=O)N2CCC3(CCNC(=O)C3)CC2)CC[C@]2(CO2)[C@H]1[C@@]1(C)O[C@@H]1CC=C(C)C` [Example 30, (3R,4S,5S,6R)-5-methoxy-4-((2R,3R)-2-methyl-3-(3-methylbut-2-enyl)oxiran-2-yl)-1-oxaspiro[2.5]octan-6-yl 8-oxo-3,9-diazaspiro[5.5]undecane-3-carboxylate], 1.1%.
As to `CO[C@@H]1[C@H](OC(=O)N2CC3CC3C2)CC[C@]2(CO2)[C@H]1[C@@]1(C)O[C@@H]1CC=C(C)C` (stereo partly drawn) [Example 21, (3R,4S,5S,6R)-5-methoxy-4-((2R,3R)-2-methyl-3-(3-methylbut-2-enyl)oxiran-2-yl)-1-oxaspiro[2.5]octan-6-yl 3-azabicyclo[3.1.0]hexane-3-carboxylate], the inhibition in vivo at 0.3 mg/kg in experiment [1] is 21.2%.
Same read-out and setting: for `CO[C@@H]1[C@H](OC(=O)N2CCC3(CCN(C)CC3)CC2)CC[C@]2(CO2)[C@H]1[C@@]1(C)O[C@@H]1CC=C(C)C` [Example 28, (3R,4S,5S,6R)-5-methoxy-4-((2R,3R)-2-methyl-3-(3-methylbut-2-enyl)oxiran-2-yl)-1-oxaspiro[2.5]octan-6-yl 9-methyl-3,9-diazaspiro[5.5]undecane-3-carboxylate] the value was 8%; for `CO[C@@H]1[C@H](OC(=O)N2CCC3(CCN(C)C(=O)C3)CC2)CC[C@]2(CO2)[C@H]1[C@@]1(C)O[C@@H]1CC=C(C)C` [Example 31, (3R,4S,5S,6R)-5-methoxy-4-((2R,3R)-2-methyl-3-(3-methylbut-2-enyl)oxiran-2-yl)-1-oxaspiro[2.5]octan-6-yl 9-methyl-8-oxo-3,9-diazaspiro[5.5]undecane-3-carboxylate], 3.6%.
